Experimental data published in ChEMBL document CHEMBL1139720, “Synthesis and antiproliferative activity of (2R,3R)-disubstituted tetrahydropyrans” (2006).

Tests used:
Assay type in all cases: functional
A2780 = test: Antiproliferative activity against human A2780 cells after 48 hrs by SRB assay; details: A2780, 48 h
SW1573 = test: Antiproliferative activity against human SW1573 cells after 48 hrs by SRB assay; details: SW1573, 48 h
WiDr = test: Antiproliferative activity against human WiDr cells after 48 hrs by SRB assay

GI50 (A2780) | GI50 (SW1573) | Structure (SMILES) | GI50 (WiDr) | TGI (A2780) | TGI (SW1573) | TGI (WiDr) | LC50 (A2780)
86 µM | > 100 µM | C=C[C@H]1OCCC[C@H]1O[Si](C)(C)C(C)(C)C | > 100 µM | – | – | – | –
> 100 µM | > 100 µM | CC(C)(C)[Si](C)(C)O[C@@H]1CCCO[C@@H]1/C=C/C(=O)O | > 100 µM | – | – | – | –
> 100 µM | > 100 µM | COC(=O)/C=C/[C@H]1OCCC[C@H]1O | > 100 µM | – | – | – | –
> 100 µM | > 100 µM | CC(C)(C)[Si](C)(C)O[C@@H]1CCCO[C@@H]1CO | > 100 µM | – | – | – | –
> 100 µM | > 100 µM | O=C1C[C@H]2OCCC[C@H]2O1 | > 100 µM | – | – | – | –
8.3 µM | 5.7 µM | O=C1C=C[C@H]2OCCC[C@H]2O1 | 39 µM | 35 µM | – | – | –

The remaining lines, values behind:

Structure (SMILES) | GI50 (A2780) | GI50 (SW1573) | GI50 (WiDr) | TGI (A2780) | TGI (SW1573) | TGI (WiDr) | LC50 (A2780)
O=C(C[C@H]1OCCC[C@H]1O)OCc1ccccc1 | > 100 µM | > 100 µM | > 100 µM | – | – | – | –
O=C(/C=C/[C@H]1OCCC[C@H]1O)OCc1ccccc1 | > 100 µM | > 100 µM | > 100 µM | – | – | – | –
CC(C)(C)[Si](C)(C)O[C@@H]1CCCO[C@@H]1/C=C\C(=O)OCc1ccccc1 | 29 µM | 26 µM | 20 µM | 77 µM | 92 µM | 64 µM | –
COC(=O)/C=C/[C@H]1OCCC[C@@H]1O[Si](C)(C)C(C)(C)C | 28 µM | 47 µM | 84 µM | – | – | – | –
COC(=O)/C=C/[C@H]1OCCC[C@H]1O[Si](C)(C)C(C)(C)C | 98 µM | > 100 µM | > 100 µM | – | – | – | –
COC(=O)/C=C\[C@H]1OCCC[C@H]1O[Si](C)(C)C(C)(C)C | 7.3 µM | 6.3 µM | 38 µM | 39 µM | 68 µM | – | 86 µM
CC(C)(C)[Si](C)(C)O[C@@H]1CCCO[C@@H]1/C=C\CO | > 100 µM | > 100 µM | > 100 µM | – | – | – | –
CC(C)(C)[Si](C)(C)O[C@@H]1CCCO[C@@H]1/C=C/C(=O)OCc1ccccc1 | 32 µM | 37 µM | 90 µM | – | – | – | –
CC(C)(C)[Si](C)(C)OC[C@H]1OCCC[C@H]1O[Si](C)(C)C(C)(C)C | > 100 µM | > 100 µM | > 100 µM | – | – | – | –
CC(C)(C)[Si](C)(C)O[C@@H]1CCCO[C@@H]1CC(=O)OCc1ccccc1 | 23 µM | 30 µM | 19 µM | – | – | – | –
